The text below walks through data of ChEMBL document CHEMBL1154287, “Phenylaminopyrimidines as inhibitors of Janus kinases (JAKs)” (Bioorg Med Chem Lett, 2009).

The term Papp B→A denotes how fast a substance crosses the layer from the basolateral side. A word on the Cmax: it is the maximum level reached in the sampled fluid or tissue. What is called Papp A→B is how fast a substance crosses the layer from the apical side. Higher therefore signals fast passage. Usually IC50 stands for the concentration at which inhibition is half-maximal. As a reminder, the clearance is the volume of plasma or blood freed of the substance per unit of time. Read a low clearance as a low capacity for elimination. By bioavailability is commonly meant dose-corrected exposure relative to a reference, in per cent. A lower bioavailability goes with poor availability. As a reminder, the efflux ratio is the permeability from basolateral to apical divided by that in the opposite direction, in the common usage. One may read the CL/F as clearance divided by bioavailability, as obtained after extravascular dosing. Usually Tmax stands for the time at which the peak concentration occurs. A word on the half-life: it is the time in which the quantity being followed falls by half.

Data set [1] is described as follows: Apparent permeability from basolateral to apical side in human Caco-2 cells. In kind it is ADME, cell-based.
Data set [2] can be described thus: Cmax in Sprague-Dawley rat at 21 mg/kg. In kind it is ADME, organism-based. Details: dose 21 mg/kg. The conditions noted are these: in vivo.
Data set [3] can be described thus: in vitro. The conditions noted are these: human, Caco-2.
Description: Apparent permeability from apical to basolateral side in human Caco-2 cells
The target in data set [4] is Tyrosine-protein kinase JAK2 (Homo sapiens, UniProt O60674).
Description: Inhibition of GST-tagged JAK2 kinase
Data set [5] relates to BaF3. The data set is described as follows: cells. The following applies: Mus musculus, BaF3, 72 h.
Description: Antiproliferative activity against mouse BAF3 cells expressing TEL-JAK3 kinase after 72 hrs by alamar blue assay
Data set [6] can be described thus: Blood clearance in Sprague-Dawley rat at 21 mg/kg, iv. In kind it is ADME, organism-based. The arrangement: dose 21 mg/kg, route intravenous.
The nature of data set [7]: Oral bioavailability in Sprague-Dawley rat at 21 mg/kg. In kind it is ADME, organism-based. The conditions noted are these: in vivo.
The target in data set [8] is T1, Tyrosine-protein kinase JAK3 (Homo sapiens, UniProt P52333).
T1 sequence (P52333 whole entry): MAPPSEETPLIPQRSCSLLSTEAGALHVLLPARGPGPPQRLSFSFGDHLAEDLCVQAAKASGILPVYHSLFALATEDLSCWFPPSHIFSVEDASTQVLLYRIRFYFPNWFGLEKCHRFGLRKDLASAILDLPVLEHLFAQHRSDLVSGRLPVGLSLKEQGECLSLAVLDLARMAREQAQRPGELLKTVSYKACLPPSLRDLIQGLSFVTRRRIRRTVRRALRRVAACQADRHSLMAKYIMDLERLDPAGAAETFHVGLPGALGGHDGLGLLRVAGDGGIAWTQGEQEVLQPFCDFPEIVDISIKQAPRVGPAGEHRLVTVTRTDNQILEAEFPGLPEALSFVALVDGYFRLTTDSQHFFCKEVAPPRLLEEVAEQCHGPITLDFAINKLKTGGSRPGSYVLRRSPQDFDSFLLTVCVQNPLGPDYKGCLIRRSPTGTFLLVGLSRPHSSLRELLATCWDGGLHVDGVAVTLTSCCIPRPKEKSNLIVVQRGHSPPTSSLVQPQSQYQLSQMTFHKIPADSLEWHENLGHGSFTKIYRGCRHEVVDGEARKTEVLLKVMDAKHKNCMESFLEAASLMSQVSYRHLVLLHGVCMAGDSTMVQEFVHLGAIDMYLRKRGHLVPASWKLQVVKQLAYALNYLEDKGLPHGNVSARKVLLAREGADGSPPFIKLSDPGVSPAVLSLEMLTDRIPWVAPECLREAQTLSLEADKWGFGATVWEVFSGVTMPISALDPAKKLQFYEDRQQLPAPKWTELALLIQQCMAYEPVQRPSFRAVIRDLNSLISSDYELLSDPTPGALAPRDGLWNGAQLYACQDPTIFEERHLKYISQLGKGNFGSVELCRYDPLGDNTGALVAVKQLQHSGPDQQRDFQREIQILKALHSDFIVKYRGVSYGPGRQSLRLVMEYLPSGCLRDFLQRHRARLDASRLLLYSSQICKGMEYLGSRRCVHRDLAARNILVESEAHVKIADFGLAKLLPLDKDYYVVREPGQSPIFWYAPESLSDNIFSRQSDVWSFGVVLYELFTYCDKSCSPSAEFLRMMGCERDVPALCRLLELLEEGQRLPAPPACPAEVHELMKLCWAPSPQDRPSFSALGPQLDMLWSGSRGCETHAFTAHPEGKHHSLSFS
Description: Inhibition of GST-tagged JAK3 kinase

The nature of a further data set: cells. The following applies: Mus musculus, CTLL-2, 72 h.
Data set [9] deals with BaF3. Description: cells. The following applies: Mus musculus, BaF3, 72 h. The source holds these as a separate data set.
Description: Antiproliferative activity against mouse BAF3 cells expressing TEL-JAK2 kinase after 72 hrs by alamar blue assay
Data set [10] in a line: in vitro. The conditions noted are these: human, Caco-2. This is another data set of the same source.
Description: Ratio of permeability from apical to basolateral side over basolateral to apical side in human Caco-2 cells
Data set [11] is described as follows: Blood clearance in Sprague-Dawley rat at 18 mg/kg, po. The arrangement: dose 18 mg/kg, route oral. In kind it is ADME, organism-based.
The nature of data set [12]: Tmax in Sprague-Dawley rat at 18 mg/kg, po. In kind it is ADME, organism-based. The arrangement: dose 18 mg/kg, route oral. The conditions noted are these: in vivo.
Data set [13] is described as follows: Apparent half life in Sprague-Dawley rat at 18 mg/kg, po. In kind it is ADME, organism-based. Details: dose 18 mg/kg, route oral. The following applies: in vivo.
The nature of data set [14]: Antiproliferative activity against human SET2 cells expressing JAK2 V617F mutant kinase after 72 hrs by alamar blue assay. In kind it is functional, cell-based. The conditions noted are these: SET-2, 72 h.
Data set [15] deals with BaF3. Description: Antiproliferative activity against mouse BAF3 cells expressing wild type JAK2 kinase after 72 hrs by alamar blue assay in presence of IL-3. The following applies: BaF3, 72 h. In kind it is functional, cell-based. For orientation: Alamar Blue is a resazurin reagent that responds to reducing activity.
Data set [16] in a line: Cmax in Sprague-Dawley rat at 18 mg/kg, po. The arrangement: dose 18 mg/kg, route oral. The conditions noted are these: in vivo. In kind it is ADME, organism-based.
A further data set has as its system K562. The data set is described as follows: cells. The following applies: Homo sapiens, K562, 72 h.

Sequence of Tyrosine-protein kinase JAK2 (O60674 whole entry): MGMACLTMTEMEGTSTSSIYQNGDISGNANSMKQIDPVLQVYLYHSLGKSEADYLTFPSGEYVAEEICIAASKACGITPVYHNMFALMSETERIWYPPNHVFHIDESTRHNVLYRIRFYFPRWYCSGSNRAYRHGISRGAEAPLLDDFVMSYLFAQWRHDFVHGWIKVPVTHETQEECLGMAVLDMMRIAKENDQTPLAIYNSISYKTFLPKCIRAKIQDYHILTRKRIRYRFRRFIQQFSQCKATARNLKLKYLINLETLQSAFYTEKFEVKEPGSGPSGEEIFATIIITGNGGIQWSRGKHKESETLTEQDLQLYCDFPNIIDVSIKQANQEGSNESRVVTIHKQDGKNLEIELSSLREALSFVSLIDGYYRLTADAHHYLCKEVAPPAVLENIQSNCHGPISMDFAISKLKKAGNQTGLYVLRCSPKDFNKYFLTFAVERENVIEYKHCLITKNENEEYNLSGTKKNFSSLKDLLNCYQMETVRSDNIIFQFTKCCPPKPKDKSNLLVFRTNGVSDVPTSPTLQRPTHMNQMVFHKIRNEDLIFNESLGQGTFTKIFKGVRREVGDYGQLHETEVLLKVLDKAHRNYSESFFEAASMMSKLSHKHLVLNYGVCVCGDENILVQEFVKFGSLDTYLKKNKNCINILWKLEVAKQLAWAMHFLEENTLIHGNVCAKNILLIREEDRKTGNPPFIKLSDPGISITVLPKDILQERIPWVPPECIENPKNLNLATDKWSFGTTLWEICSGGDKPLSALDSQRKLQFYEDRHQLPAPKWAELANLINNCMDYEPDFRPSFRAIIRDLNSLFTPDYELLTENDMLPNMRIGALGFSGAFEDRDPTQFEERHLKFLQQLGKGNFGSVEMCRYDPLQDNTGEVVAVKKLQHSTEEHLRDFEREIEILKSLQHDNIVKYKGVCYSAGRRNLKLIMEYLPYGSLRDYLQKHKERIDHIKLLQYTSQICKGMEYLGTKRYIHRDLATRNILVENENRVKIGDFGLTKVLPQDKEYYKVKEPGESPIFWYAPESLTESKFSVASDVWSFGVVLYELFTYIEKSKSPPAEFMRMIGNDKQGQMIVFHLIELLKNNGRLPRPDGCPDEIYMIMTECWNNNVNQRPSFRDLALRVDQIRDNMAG
Description for K562: Antiproliferative activity against human K562 cells after 72 hrs by alamar blue assay

Take `CS(=O)(=O)Nc1ccc(-c2ccnc(Nc3ccc(CN4CCS(=O)(=O)CC4)cc3)n2)cc1`: in data set [1], the basolateral-to-apical permeability (Papp B→A) worked out at 564 nm/s. The concentration in data set [2] peaked (Cmax) at 0.27 µM. In the data set “in vitro [3]”, this compound registered a Papp A→B of 46 nm/s. Further, the IC50 in [4] came to 0.002 µM; in the data set with BaF3 [5], 3.56 µM; in data set [8], 0.587 µM; in the data set “cells”, 2.22 µM; in the data set on BaF3 [9], 0.802 µM. This compound also displayed a clearance in data set [6] of 2.2 L/h/kg. Besides, the bioavailability in data set [7] was determined as 5.4%. Moreover, the efflux ratio in “in vitro [10]” stood at 12.3.

On to `OC[C@@H](O)[C@@H](O)[C@H](O)[C@H](O)CO` [MANNITOL], for which the Papp B→A in [1] amounted to 11 nm/s. For the same compound, the Papp A→B in “in vitro [3]” worked out at 7 nm/s. The efflux ratio in the data set “in vitro [10]” worked out at 1.5.

Regarding `N#CCNC(=O)c1ccc(-c2ccnc(Nc3ccc(N4CCOCC4)cc3)n2)cc1` [MOMELOTINIB], in [1], the apparent permeability from basolateral to apical (Papp B→A) amounted to 273 nm/s. Also, in data set [11], the apparent clearance (CL/F) came to 0.378 L/h/kg. Further, the time of peak concentration (Tmax) in data set [12] is 4 h. In addition, in “in vitro [3]”, the Papp A→B came out at 304 nm/s. Besides, the IC50 was 2.43 µM with BaF3 [5]; 1.25 µM in “cells”; 0.798 µM in the data set with BaF3 [9]; 0.232 µM in data set [14]; 1.43 µM with BaF3 [15]; > 20 µM in the data set on K562. In addition, the half-life in data set [13] was 2.4 h. In data set [16], this compound displayed a Cmax of 40.4 µM.

Regarding `CN1CCN(Cc2ccc(Nc3nccc(-c4ccc(NS(C)(=O)=O)cc4)n3)cc2)CC1`, the IC50 is 0.018 µM in data set [4]; 3.43 µM in the data set with BaF3 [5]; > 1 µM in data set [8]; 1.55 µM in “cells”; 1 µM in the data set with BaF3 [9].

`N#CCNC(=O)c1cccc(-c2ccnc(Nc3ccc(N4CCOCC4)cc3)n2)c1`: the IC50 in data set [4] is 0.545 µM; in the data set on BaF3 [5], > 20 µM; in data set [8], > 5 µM; in “cells” it was > 20 µM; in the data set with BaF3 [9], > 20 µM.

On to `CCN1CCN(Cc2ccc(Nc3nccc(-c4ccc(C(=O)NCC#N)cc4)n3)cc2)CC1`, for which the IC50 in data set [4] turned out to be 0.047 µM; in the data set with BaF3 [5], 1.23 µM; in data set [8], 0.152 µM; in the data set “cells”, 1.85 µM; in the data set with BaF3 [9], 0.423 µM.

Consider `CC(C)NCC(O)COc1cccc2ccccc12` (centres undefined) [PROPRANOLOL], for which the Papp B→A in data set [1] came to 488 nm/s. The compound also yielded a Papp A→B in the data set “in vitro [3]” of 387 nm/s. Also, the efflux ratio in “in vitro [10]” worked out at 1.3.

In the case of `N#CCNC(=O)c1ccc(-c2ccnc(Nc3ccc(CN4CCOCC4)cc3)n2)cc1`, the IC50 in [4] amounted to 0.163 µM; in the data set with BaF3 [5], 9.51 µM; in [8], 1.45 µM; in “cells” it was 5.07 µM; in the data set on BaF3 [9], 2.81 µM.

`CS(=O)(=O)Nc1ccc(-c2ccnc(Nc3ccc(CN4CCC(O)CC4)cc3)n2)cc1`: the IC50 worked out at 0.016 µM in data set [4]; 2.2 µM with BaF3 [5]; 1.62 µM in data set [8]; 5.61 µM in “cells”; 0.892 µM in the data set on BaF3 [9].

For `CS(=O)(=O)Nc1ccc(-c2ccnc(Nc3cccc(CN4CCCC4)c3)n2)cc1`, the IC50 in data set [4] was 0.006 µM; in the data set with BaF3 [5], 0.24 µM; in data set [8] it was 0.11 µM; in the data set “cells”, 0.569 µM; with BaF3 [9] it was 0.234 µM.

Turning to `CS(=O)(=O)Nc1ccc(-c2ccnc(Nc3cccc(CN4CCOCC4)c3)n2)cc1`, the IC50 in data set [4] came to 0.008 µM; in the data set with BaF3 [5], 1.73 µM; in data set [8], 0.93 µM; in the data set “cells” it was 2.66 µM; with BaF3 [9], 0.812 µM.
